Type in all cases: functional
Conditions in all cases: time 7 day

Experiment [1] has as its system Mycobacterium tuberculosis. Briefly: Anti-mycobacterial activity against Rifampicin resistant Mycobacterium tuberculosis clinical isolate harbouring rpoB S531L mutant assessed as bacterial growth inhibition incubated for 7 days by microplate alamar blue assay.
Experiment [2] deals with Mycobacterium tuberculosis. Briefly: Anti-mycobacterial activity against Isoniazid resistant Mycobacterium tuberculosis clinical isolate harbouring katG S315T mutant assessed as bacterial growth inhibition incubated for 7 days by microplate alamar blue assay. (In general: Resazurin is reduced to fluorescent resorufin, in cell work by metabolically active cells.)
Experiment [3] has as its system Mycobacterium tuberculosis. Briefly: Anti-mycobacterial activity against Isoniazid resistant Mycobacterium tuberculosis clinical isolate harbouring inhA mutant assessed as bacterial growth inhibition incubated for 7 days by microplate alamar blue assay.
In experiment [4] the test system is Mycobacterium tuberculosis. Briefly: Anti-mycobacterial activity against isoniazid, rifampicin, ethambutol and pyrazinamide-resistant Mycobacterium tuberculosis clinical isolate harbouring inhA/katG/rpoB H526D mutant assessed as bacterial growth inhibition incubated for 7 days by microplate alamar blue assay.

Converted amounts (≈) assume the structure as drawn.

As for `Clc1ccccc1C(c1ccccc1)(c1ccccc1)n1ccnc1` [CLOTRIMAZOLE], the MIC50 (usually the lowest concentration that inhibits either 50% of growth or 50% of the strains tested, depending on the study) in experiment [1] stood at 1.53 µM (≈ 0.528 µg/mL); in experiment [2], 1.72 µM (≈ 0.593 µg/mL); in experiment [3], 0.17 µM (≈ 0.0586 µg/mL); in experiment [4] it was 5.07 µM (≈ 1.75 µg/mL). Further, the MIC90 (usually an inhibitory concentration at the 90% level, which refers to growth in some studies and to a panel of isolates in others) stood at 3.12 µM (≈ 1.08 µg/mL) in experiment [1], 3.12 µM (≈ 1.08 µg/mL) in experiment [2], 0.78 µM (≈ 0.269 µg/mL) in experiment [3] and 6.25 µM (≈ 2.16 µg/mL) in experiment [4].
`NNC(=O)c1ccncc1` [ISONIAZID]: the MIC50 was 23.03 µM (≈ 3.16 µg/mL) in experiment [1], 11.06 µM (≈ 1.52 µg/mL) in experiment [2], 0.98 µM (≈ 0.134 µg/mL) in experiment [3] and >100 µM in experiment [4]. Further, the MIC90 in experiment [1] was 25 µM (≈ 3.43 µg/mL); in experiment [2], 12.5 µM (≈ 1.71 µg/mL); in experiment [3], 1.56 µM (≈ 0.214 µg/mL); in experiment [4], >100 µM.
For `CC(=O)NC[C@H]1CN(c2ccc(N3CCOCC3)c(F)c2)C(=O)O1` [LINEZOLID], the MIC50 amounted to 0.24 µM (≈ 0.081 µg/mL) in experiment [1], 0.42 µM (≈ 0.142 µg/mL) in experiment [2], 0.12 µM (≈ 0.0405 µg/mL) in experiment [3] and 0.81 µM (≈ 0.273 µg/mL) in experiment [4]. Further, the MIC90 in experiment [1] turned out to be 0.78 µM (≈ 0.263 µg/mL); in experiment [2] it was 1.56 µM (≈ 0.526 µg/mL); in experiment [3], 0.39 µM (≈ 0.132 µg/mL); in experiment [4], 1.56 µM (≈ 0.526 µg/mL).
`Clc1ccc(COC(Cn2ccnc2)c2ccc(Cl)cc2Cl)c(Cl)c1` (stereo not given) [MICONAZOLE]: the MIC50 in experiment [1] is 2.74 µM (≈ 1.14 µg/mL); in experiment [2], 3.58 µM (≈ 1.49 µg/mL); in experiment [3] it was 0.28 µM (≈ 0.117 µg/mL); in experiment [4], 4.42 µM (≈ 1.84 µg/mL). The MIC90 in experiment [1] is 6.25 µM (≈ 2.6 µg/mL); in experiment [2], 6.25 µM (≈ 2.6 µg/mL); in experiment [3] it was 0.78 µM (≈ 0.325 µg/mL); in experiment [4], 6.25 µM (≈ 2.6 µg/mL).
Take `CO[C@H]1/C=C/O[C@@]2(C)Oc3c(C)c(O)c4c(O)c(c(/C=N/N5CCN(C)CC5)c(O)c4c3C2=O)NC(=O)/C(C)=C\C=C\[C@H](C)[C@H](O)[C@@H](C)[C@@H](O)[C@@H](C)[C@H](OC(C)=O)[C@@H]1C` [RIFAMPIN]: the MIC50 in experiment [1] is 28.15 µM (≈ 23.2 µg/mL); in experiment [2], <0.04 µM; in experiment [3] it was <0.04 µM; in experiment [4], >100 µM. In addition, the MIC90 in experiment [1] was 50 µM (≈ 41.1 µg/mL); in experiment [2] it was <0.04 µM; in experiment [3], <0.04 µM; in experiment [4], >100 µM.

For the origin of these results see ChEMBL document CHEMBL5390314, “Repurposing Azoles to Resolve Serotogenic Toxicity Associated with Linezolid to Combat Multidrug-Resistant Tuberculosis” (ACS Med Chem Lett, 2023).
